Results reported in patent publication US11412737B2, “Mixtures of beflubutamid or optically enriched forms thereof with a second herbicide” (FMC Corporation, priority 2016, dated 2022).

Experiments:
[1] = system: Wild oat (AVEFA); assay: pre-emergence test, weed control; assay type: in vivo, Avena fatua; settings: pre-emergent, 21 DAT, rate g ai/ha by row: r4 94, r5 125, r6 250, r7 125, r8 250, r9 500, r10 94+125, r11 125+125, r12 94+250, r13 125+250, r14 94+500, r15 125+500
Experimental: (§1) Test compositions containing the test compounds were diluted with water to provide the appropriate test rate concentrations.
(§2) For pre-emergence testing, four disposable fiber flats (6 inch by 10 inch) for each rate of application of each herbicide solution were filled with top soil, to which seeds of each species were planted in furrows made by a template pressed on the top of the soil. The furrows were covered with soil after planting the seed and were watered well before application of the test compounds.
(§3) Fiber flats designated for treatment were placed in a spray chamber having a static platform and a movable sprayer and the height of the spray nozzle was 10.5 inches above the soil level. Once the sprayer was calibrated using water for spray volume of 30 gallons per acre, flats were sprayed with sprayer at a speed to receive a coverage equivalent of 30 gallons per acre. The application rates are those shown in the Tables below for the individual herbicidal solutions and the herbicide compositions of this invention. The pre-emergence flats were immediately placed in the greenhouse and watered lightly after treatment. Thereafter they were regularly watered and fertilized for the duration of the test.
(§4) The control of weeds was evaluated in each experimental test at 21 for wheat and 28 days after treatment (DAT) for all species. Data were analyzed using Minitab software at 95% confidence interval. The results, shown as an average of the replications, were compared with results observed in untreated control flats in the same tests. Percent control was determined by a method similar to the 0 to 100 rating system disclosed in “Research Methods in Weed Science,” 2nd ed., B. Truelove, Ed.; Southern Weed Science Society; Auburn University, Auburn, Ala., 1977. The rating system is as follows in Table 1.

[2] = system: redroot pigweed (AMARE); assay: post-emergence test, weed control; assay type: in vivo; settings: post-emergent, 28 DAT, COC 1%, rate g ai/ha by row: r5 94, r6 125, r7 250, r8 1.25, r9 2.5, r10 5, r11 94+1.25, r13 125+1.25, r15 94+2.5, r17 125+2.5, r19 94+5, r21 125+5
Experimental: as §1
For post-emergence testing, seeds of each species for each rate of application of each herbicide solution were planted in 7.5 cm×7.5 cm plastic pots filled with potting soil. The seeds were germinated and the resulting plants were allowed to grow in a greenhouse until they reached a growth stage, such as height, suitable for testing. […] Pots of post-emergent treated plants were returned to the greenhouse and not watered for 24 hours after treatment. Thereafter they were regularly watered and fertilized for the duration of the test.
The control of weeds was evaluated in each experimental test at 21 for wheat and 28 days after treatment (DAT) for all species. […] The rating system is as follows in Table 1.

[3] = system: Velvetleaf (ABUTH); assay: pre-emergence test, weed control; assay type: in vivo, Abutilon theophrasti; settings: pre-emergent, 21 DAT, rate g ai/ha by row: r4 94, r5 125, r6 250, r7 125, r8 250, r9 500, r10 94+125, r11 125+125, r12 94+250, r13 125+250, r14 94+500, r15 125+500
Experimental: as §1, §2, §3, §4

[4] = system: Canola (CN); assay: post-emergence test, crop injury; assay type: in vivo; settings: post-emergent, 28 DAT (Table 12 test)
Experimental: as §1
For post-emergence testing, seeds of each species for each rate of application of each herbicide solution were planted in 7.5 cm×7.5 cm plastic pots filled with potting soil. The seeds were germinated and the resulting plants were allowed to grow in a greenhouse until they reached a growth stage, such as height, suitable for testing. Treatments were applied using compressed air in a track spray chamber at 30 gallons/acre (280 L/ha) using a TeeJet 8001E nozzle at 40 psi (2.76 bars). Pots of post-emergent treated plants were returned to the greenhouse and not watered for 24 hours after treatment. Thereafter they were regularly watered and fertilized for the duration of the test.
The control of weeds was evaluated in each experimental test at 21 for wheat and 28 days after treatment (DAT) for all species. Data were analyzed using Minitab software at 95% confidence interval. The results, shown as an average of the replications, were compared with results observed in untreated control flats in the same tests. Percent control was determined by a method similar to the 0 to 100 rating system disclosed in “Research Methods in Weed Science,” 2nd ed., B. Truelove, Ed.; Southern Weed Science Society; Auburn University, Auburn, Ala., 1977. […]

[5] = system: Common chickweed (STEME); assay: pre-emergence test, weed control; assay type: in vivo, Stellaria media; settings: pre-emergent, 28 DAT; BFL at 187.5 g, PYX at 90 g, combination of both
Experimental: as §1, §2
Fiber flats designated for treatment were placed in a spray chamber having a static platform and a movable sprayer and the height of the spray nozzle was 10.5 inches above the soil level. Once the sprayer was calibrated using water for spray volume of 30 gallons per acre, flats were sprayed with sprayer at a speed to receive a coverage equivalent of 30 gallons per acre. […]
The control of weeds was evaluated in each experimental test at 21 for wheat and 28 days after treatment (DAT) for all species. Data were analyzed using Minitab software at 95% confidence interval. […] Percent control was determined by a method similar to the 0 to 100 rating system disclosed in “Research Methods in Weed Science,” 2nd ed., B. Truelove, Ed.; Southern Weed Science Society; Auburn University, Auburn, Ala., 1977. […]

[6] = system: Shattercane (SOBIA); assay: post-emergence test, weed control; assay type: in vivo; settings: post-emergent, 28 DAT, height 8 cm, rate g ai/ha by row: r25 94, r26 125, r27 188, r28 125, r29 250, r30 94+125, r31 125+125, r32 188+125, r33 94+250, r34 125+250, r35 188+250
[7] = system: Cheat grass (BROSE); assay: post-emergence test, weed control; assay type: in vivo; settings: post-emergent, 28 DAT, height 7 cm, rate g ai/ha by row: r7 94, r8 125, r9 188, r10 125, r11 250, r12 94+125, r13 125+125, r14 188+125, r15 94+250, r16 125+250, r17 188+250
[8] = system: Redrice (ORYSA); assay: post-emergence test, weed control; assay type: in vivo; settings: post-emergent, 28 DAT; for percentage of weed control, ORYSA: height 8 cm, rate g ai/ha by row: r25 94, r26 125, r27 188, r28 125, r29 250, r30 94+125, r31 125+125, r32 188+125, r33 94+250, r34 125+250, r35 188+250
[9] = system: Rice flatsedge (CYPIR); assay: post-emergence test, weed control; assay type: in vivo; settings: post-emergent, 28 DAT, height 1-2 cm, rate g ai/ha by row: r25 94, r26 125, r27 188, r28 125, r29 250, r30 94+125, r31 125+125, r32 188+125, r33 94+250, r34 125+250, r35 188+250
[10] = system: Common ragweed (AMBEL); assay: post-emergence test, weed control; assay type: in vivo; settings: post-emergent, 28 DAT, height 3-4 cm, rate g ai/ha by row: r7 94, r8 125, r9 188, r10 125, r11 250, r12 94+125, r13 125+125, r14 188+125, r15 94+250, r16 125+250, r17 188+250

CCC(Oc1ccc(F)c(C(F)(F)F)c1)C(=O)NCc1ccccc1 (racemic) [BFL, 2-[4-fluoro-3-(trifluoromethyl)phenoxy]-N-(phenylmethyl)butanamide]
percentage of weed control, Wild Oat AVEFA ([1]; 94 g ai/ha): 10% | percentage of weed control, Wild Oat AVEFA ([1]; 125 g ai/ha): 9% | percentage of weed control, Redroot pigweed AMARE ([2]; BFL at 94 g ai/ha): 61% | percentage of weed control, Redroot pigweed AMARE ([2]; BFL at 125 g ai/ha): 60% | percentage of weed control, Redroot pigweed AMARE ([2]; BFL at 250 g ai/ha): 86% | percentage of weed control, Velvetleaf ABUTH ([3]; 94 g ai/ha): 10% | percentage of weed control, Velvetleaf ABUTH ([3]; 125 g ai/ha): 15% | percentage of weed control, Velvetleaf ABUTH ([3]; 250 g ai/ha): 14% | crop injury on canola [4]: significant crop injury | control of common chickweed [5]: 6% | percentage of weed control, SOBIA [6]: 0% | percentage of weed control, BROSE ([7]; 94 g ai/ha): 0% | percentage of weed control, BROSE ([7]; 188 g ai/ha): 6% | percentage of weed control, ORYSA ([8]; 94 g ai/ha): 46% | percentage of weed control, ORYSA ([8]; 125 g ai/ha): 44% | percentage of weed control, ORYSA ([8]; 188 g ai/ha): 28% | control of red rice ([8]; BFL at 187.5 g, PYX at 90 g, combination of both): 69% | percentage of weed control, CYPIR ([9]; 94 g ai/ha): 0% | percentage of weed control, CYPIR ([9]; 188 g ai/ha): 4% | percentage of weed control, AMBEL ([10]; 94 g ai/ha): 5% | percentage of weed control, AMBEL ([10]; 125 g ai/ha): 6% | percentage of weed control, AMBEL ([10]; 188 g ai/ha): 12%

CC1(C)CON(Cc2ccc(Cl)cc2Cl)C1=O [DCI, 2-(2,4-dichlorophenyl)methyl-4,4-dimethyl-3-isoxazolidinone]
percentage of weed control, SOBIA ([6]; 125 g ai/ha): 1% | percentage of weed control, SOBIA ([6]; 250 g ai/ha): 4% | percentage of weed control, BROSE [7]: 0% | percentage of weed control, ORYSA ([8]; 125 g ai/ha): 26% | percentage of weed control, ORYSA ([8]; 250 g ai/ha): 42% | percentage of weed control, CYPIR [9]: 0% | percentage of weed control, AMBEL ([10]; 125 g ai/ha): 73% | percentage of weed control, AMBEL ([10]; 250 g ai/ha): 77%
